Results from US20240010680A1, “PEPTIDE DISINFECTANT FOR PREVENTING CORONAVIRUSES” (Xiamen University, priority 2021, published 2024).
Where no end group is shown, it is not given here.

Molecular target: hACE2 (Homo sapiens, UniProt Q9BYF1)
Test: Biacore T200 molecular binding (affinity analysis) of peptides on a CM5-hACE2 chip
Description: Embodiment 1: Testing a Binding Capacity Between Peptide1 & Peptide2 and Derivatives Thereof and hACE2 Based on a Biacore Molecular Binding System (e.g., GE Biacore T200)
Apparatus: GE Biacore T200.
Materials and reagents: Series S Sensor Chip CM5 (GE Life100530), hACE2 purified protein, Peptide1 & Peptide2 and their derivatives (See Table 1), Amine Coupling Kit (GELife100050, Phosphate-buffered saline (PBS), glycine-hydrochloric acid buffer solution (pH 2.5)).
(1) Preparing a Capture Surface and a Binding Experiment
Materials: 1-(3-Dimethylaminopropyl)-3-ethylcarbodiimide hydrochloride (EDC), N-Hydroxysuccinimide (NHS), ethanolamine (an amine coupling kit), PBS, hACE2, Series S Sensor Chip CM5.
Specific Steps: • a. The GE Biacore T200 is started, the Series S Sensor Chip CM5 is embedded into the GE Biacore T200, the PBS is degassed to obtain a degassed PBS, and the degassed PBS is used throughout the experiment; • b. The NHS, the EDC, the ethanolamine, and the hACE2 (1 mg/mL) are placed on a feeding plate of the GE Biacore T200 according to volumes indicated by the GE Biacore T200 using Eppendorf (EP) tubes in sufficient quantities; • c. A sample is injected at a flow rate of 5 μL/min, an activation of the Series S Sensor Chip CM5, amine coupling of the hACE2, and saturating an activated carboxyl group that is uncoupled with the hACE2 using the ethanolamine are sequentially performed to obtain an RUs value of the hACE2, and the RUs value is 14826.0; • d. A mobile solution (the degassed PBS) is closed, a command window is closed, and a report is served to obtain a CM5-hACE2 chip;
(2) Affinity analysis of peptides with hACE from Table 1
Materials: the PBS, the CM5-hACE2 chip, the peptides in the Table 1, and the glycine-hydrochloric acid buffer solution (pH 2.5).
Specific Steps: • a. Preparing different dilutions as samples for testing: the peptides in Table 1 to be tested at a concentration of 3 mmol/L (mM) are dissolved and sequentially diluted into different dilutions of 100 μmol/L (μM), 60 μM, 30 μM, 10 μM, 3 μM, 1 μM, 0.3 μM, and 0 using the PBS to obtain the samples. Each of the different dilutions is ensured to have a volume of no less than 400 μL and separately packaged on EP tubes. The samples are placed on a test plate of the GE Biacore T200, and the test plate is stuck in a test slot; • b. […]

Sequence of hACE2 (Q9BYF1 18-805): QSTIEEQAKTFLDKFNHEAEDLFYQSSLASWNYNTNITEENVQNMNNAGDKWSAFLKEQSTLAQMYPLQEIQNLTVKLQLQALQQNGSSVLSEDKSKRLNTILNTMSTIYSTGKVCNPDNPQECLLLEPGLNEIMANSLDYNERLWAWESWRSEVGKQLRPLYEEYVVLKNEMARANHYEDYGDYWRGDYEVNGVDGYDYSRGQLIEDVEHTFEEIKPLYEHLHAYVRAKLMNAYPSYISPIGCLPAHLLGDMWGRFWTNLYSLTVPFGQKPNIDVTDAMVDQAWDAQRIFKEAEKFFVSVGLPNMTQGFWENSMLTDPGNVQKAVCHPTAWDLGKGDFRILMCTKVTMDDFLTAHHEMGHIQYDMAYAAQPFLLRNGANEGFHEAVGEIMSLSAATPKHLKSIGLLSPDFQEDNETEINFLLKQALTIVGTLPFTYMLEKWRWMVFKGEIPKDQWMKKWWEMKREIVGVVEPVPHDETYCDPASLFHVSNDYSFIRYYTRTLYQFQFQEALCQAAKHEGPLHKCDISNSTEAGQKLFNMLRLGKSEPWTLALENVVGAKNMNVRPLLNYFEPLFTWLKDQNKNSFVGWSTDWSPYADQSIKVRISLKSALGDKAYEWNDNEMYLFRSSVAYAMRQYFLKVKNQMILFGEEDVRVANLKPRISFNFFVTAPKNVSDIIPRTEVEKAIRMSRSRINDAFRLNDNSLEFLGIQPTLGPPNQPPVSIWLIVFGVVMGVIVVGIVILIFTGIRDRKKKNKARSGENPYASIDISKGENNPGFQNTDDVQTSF

| Substance | Kd [µM] |
| --- | --- |
| YKYRYL [Peptide1, YKYRYL] | 50.6 |
| YSYINK [Peptide2, YSYINK] | 95 |
| YTYINK [Peptide22, YTYINK] | 58.4 |
| YRYKYL [Peptide11, YRYKYL] | 60.7 |
